Experimental findings from patent publication US20240059689A1, “PURINE DERIVATIVES AS ANTICANCER AGENTS” (Tango Therapeutics, Inc., priority 2021, published 2024) are described below.

The target in one experiment is USP1-UAF1 (Homo sapiens, UniProt O94782). The experiment can be described thus: Ubiquitin Rhodamine assay of USP1-UAF1 activity. It is filed as biochemical. The protocol:
Certain compounds of the disclosure were assessed for USP1-UAF1 activity in a Ubiquitin Rhodamine assay as described in Biology Example 1.

The test system of the next experiment is MDA-MB-436. The experiment can be described thus: Viability assay, BRCA1 mutant cell line MDA-MB-436. The format is cell-based. The conditions noted are these: Homo sapiens, MDA-MB-436, viability, BRCA1 mutant MDA-MB-436; read-out: MDA-MB-436 rel IC50. The text has this:
(§1) Table 1 also indicates IC50 values in a viability assay for a non-isogenic pair of BRCA1 mutant (column 5-MDA-MB-436) and BRCA1 WT (column 6—HCC1954) cell lines. These values indicate the effect of treatment with compound on cell survival.

Another experiment has as its system HCC1954. The experiment can be described thus: Viability assay, BRCA1 WT cell line HCC1954. The settings on record: Homo sapiens, HCC1954, viability, read-out: HCC1954 rel IC50. The format is cell-based.
Source text: as §1

The next experiment has as its system monoubiquitinated PCNA. The experiment can be described thus: AlphaLISA assay measuring monoubiquitinated PCNA in MDA-MB-436. The format is cell-based. The conditions noted are these: Homo sapiens, MDA-MB-436, monoubiquitinated PCNA, read-out: Alpha Lisa IC50. The text has this: Table 1 also indicates IC50 values for exemplary compounds in an AlphaLISA assay measuring monoubiquitinated PCNA in a BRCA1 mutant cell line (MDA-MB-436; column 7).
On the technique in general: Alpha assays give light when donor and acceptor beads are brought close together.

Chain of USP1-UAF1 (O94782 whole entry): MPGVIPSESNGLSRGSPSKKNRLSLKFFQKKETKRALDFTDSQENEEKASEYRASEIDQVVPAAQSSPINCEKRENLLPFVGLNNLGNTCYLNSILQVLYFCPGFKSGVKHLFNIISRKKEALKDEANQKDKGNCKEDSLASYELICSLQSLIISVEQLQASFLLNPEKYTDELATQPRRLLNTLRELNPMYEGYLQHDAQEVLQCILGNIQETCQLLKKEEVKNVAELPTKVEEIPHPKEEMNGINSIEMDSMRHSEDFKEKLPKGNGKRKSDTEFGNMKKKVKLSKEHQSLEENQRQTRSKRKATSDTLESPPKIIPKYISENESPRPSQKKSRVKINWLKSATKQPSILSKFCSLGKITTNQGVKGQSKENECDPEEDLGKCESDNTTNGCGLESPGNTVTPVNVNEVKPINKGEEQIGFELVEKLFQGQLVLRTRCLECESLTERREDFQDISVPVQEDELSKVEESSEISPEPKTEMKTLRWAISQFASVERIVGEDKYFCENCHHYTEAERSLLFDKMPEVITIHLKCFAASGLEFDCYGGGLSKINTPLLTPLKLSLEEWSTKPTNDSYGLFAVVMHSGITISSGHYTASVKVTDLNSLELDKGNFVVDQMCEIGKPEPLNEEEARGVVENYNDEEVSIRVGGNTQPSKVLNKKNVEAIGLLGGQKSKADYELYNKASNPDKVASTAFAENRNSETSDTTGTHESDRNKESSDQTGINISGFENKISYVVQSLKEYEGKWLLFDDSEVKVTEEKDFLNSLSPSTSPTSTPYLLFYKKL
Chain of USP1-UAF1 (Q8TAF3 whole entry partner): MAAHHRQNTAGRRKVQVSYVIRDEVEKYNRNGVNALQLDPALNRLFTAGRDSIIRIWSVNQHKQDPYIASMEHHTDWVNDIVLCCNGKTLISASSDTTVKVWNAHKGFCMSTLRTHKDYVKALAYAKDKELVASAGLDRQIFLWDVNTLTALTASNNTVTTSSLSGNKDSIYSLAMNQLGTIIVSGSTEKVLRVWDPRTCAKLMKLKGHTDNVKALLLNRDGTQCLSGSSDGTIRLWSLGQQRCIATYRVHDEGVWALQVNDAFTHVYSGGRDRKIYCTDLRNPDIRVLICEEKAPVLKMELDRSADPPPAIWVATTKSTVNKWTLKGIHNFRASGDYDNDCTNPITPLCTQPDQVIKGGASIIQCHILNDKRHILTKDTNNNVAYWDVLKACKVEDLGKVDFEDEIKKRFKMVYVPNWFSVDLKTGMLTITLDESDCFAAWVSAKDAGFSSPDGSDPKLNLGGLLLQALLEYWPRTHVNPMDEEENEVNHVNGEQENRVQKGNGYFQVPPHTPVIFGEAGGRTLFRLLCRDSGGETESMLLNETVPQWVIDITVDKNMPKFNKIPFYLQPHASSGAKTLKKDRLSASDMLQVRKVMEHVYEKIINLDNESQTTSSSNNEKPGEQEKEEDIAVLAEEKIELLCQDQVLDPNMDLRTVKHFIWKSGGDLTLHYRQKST

`COc1cc(C)n(-c2ccc(Cn3c(=N)n(C)c4cnc(-c5ccccc5C5CC5)nc43)cc2)n1` [Example T-020]: the IC50 (usually the concentration that inhibits the measured activity by half) against USP1-UAF1 was in the range of 100 to 10000 nM; in the experiment on MDA-MB-436, 250 to 10000 nM; in the experiment on HCC1954, 250 to 10000 nM; in the experiment on monoubiquitinated PCNA, 250 to 10000 nM.
As for `Cn1cc(C(F)(F)F)nc1-c1ccc(Cn2c(=N)n(C)c3cnc(-c4ccccc4OC(F)F)nc32)cc1` [Example T-021, 2-[2-(difluoromethoxy)phenyl]-7-methyl-9-[[4-[1-methyl-4-(trifluoromethyl)imidazol-2-yl]phenyl]methyl]purin-8-imine], the IC50 is 30 to 100 nM at USP1-UAF1, 100 to 250 nM in the experiment with MDA-MB-436, at least 10000 nM with HCC1954 and under 100 nM in the experiment with monoubiquitinated PCNA.
The corresponding values for `Cn1cc(C(F)(F)F)nc1-c1ccc(Cn2c(=N)n(C)c3cnc(-c4cccnc4N4CC(F)C4)nc32)cc1` [Example T-023] are 100 to 10000 nM, 250 to 10000 nM, at least 10000 nM and 250 to 10000 nM.
With `Cn1cc(C(F)(F)F)nc1-c1ccc(Cn2c(=N)n(C)c3cnc(-c4cccc(F)c4OC(F)F)nc32)cc1` [Example T-027, 2-[2-(difluoromethoxy)-3-fluoro-phenyl]-7-methyl-9-[[4-[1-methyl-4-(trifluoromethyl)imidazol-2-yl]phenyl]methyl]purin-8-imine], the IC50 against USP1-UAF1 lay in the range of 30 to 100 nM; with MDA-MB-436 it was 250 to 10000 nM; in the experiment on HCC1954, 250 to 10000 nM; with monoubiquitinated PCNA, 250 to 10000 nM.
Turning to `COc1cc(-c2nc(C(F)(F)F)cn2C)ccc1Cn1c(=N)n(C)c2cnc(-c3ccccc3C(F)(F)F)nc21` [Example T-029], the IC50 against USP1-UAF1 was 100 to 10000 nM; with MDA-MB-436, 100 to 250 nM; with HCC1954, 250 to 10000 nM; in the experiment with monoubiquitinated PCNA, 100 to 250 nM.
Turning to `CC(C)c1ccccc1-c1ncc2c(n1)n(C[C@H]1CC[C@H](c3nc(C(F)(F)F)cn3C)CC1)c(=N)n2C` [Example T-030], the IC50 at USP1-UAF1 is 100 to 10000 nM; with MDA-MB-436 it was under 100 nM; with HCC1954, 250 to 10000 nM; in the experiment with monoubiquitinated PCNA, under 100 nM.
For `CC(C)n1cc(C(F)(F)F)nc1-c1ccc(Cn2c(=N)n(C)c3cnc(-c4cccnc4OCC(F)(F)F)nc32)cc1` [Example T-031], the IC50 against USP1-UAF1 was 100 to 10000 nM; in the experiment on MDA-MB-436, 250 to 10000 nM; with HCC1954 it was at least 10000 nM; with monoubiquitinated PCNA, 250 to 10000 nM.
For the compound `CCOc1cc(C(F)(F)F)nn1-c1ccc(Cn2c(=N)n(C)c3cnc(-c4ccccc4C(C)C)nc32)cc1` [Example T-032], the IC50 at USP1-UAF1 was under 30 nM; in the experiment with MDA-MB-436, under 100 nM; with HCC1954, 250 to 10000 nM; with monoubiquitinated PCNA, 100 to 250 nM.
For `Cn1cc(C(F)(F)F)nc1-c1ccc(Cn2c(=N)n(C)c3cnc(-c4ccccc4OC(F)(F)F)nc32)cc1` [Example T-033, 7-methyl-9-[[4-[1-methyl-4-(trifluoromethyl)imidazol-2-yl]phenyl]methyl]-2-[2-(trifluoromethoxy)phenyl]purin-8-imine], the IC50 was under 30 nM on USP1-UAF1, under 100 nM with MDA-MB-436, 250 to 10000 nM with HCC1954 and under 100 nM in the experiment on monoubiquitinated PCNA.
`CN(C)c1ncccc1-c1ncc2c(n1)n(Cc1ccc(-c3nc(C(F)(F)F)cn3C)cc1)c(=N)n2C` [Example T-034]: the IC50 against USP1-UAF1 was 100 to 10000 nM; with MDA-MB-436, 250 to 10000 nM; in the experiment with HCC1954, at least 10000 nM; with monoubiquitinated PCNA, 250 to 10000 nM.
Take `CC(C)c1ccncc1-c1ncc2c(n1)n(Cc1ccc(-c3nc(C(F)(F)F)cn3C)cc1)c(=N)n2C` [Example T-035]: the IC50 against USP1-UAF1 is 100 to 10000 nM; with MDA-MB-436 it was 250 to 10000 nM; in the experiment on HCC1954, at least 10000 nM; in the experiment with monoubiquitinated PCNA, 250 to 10000 nM.
With `Cn1cc(C(F)(F)F)nc1-c1ccc(Cn2c(=N)n(C)c3cnc(-c4c(F)cccc4OC(F)F)nc32)cc1` [Example T-036, 2-[2-(difluoromethoxy)-6-fluoro-phenyl]-7-methyl-9-[[4-[1-methyl-4-(trifluoromethyl)imidazol-2-yl]phenyl]methyl]purin-8-imine], the IC50 on USP1-UAF1 was under 30 nM; in the experiment on MDA-MB-436 it was under 100 nM; in the experiment with HCC1954, at least 10000 nM; in the experiment on monoubiquitinated PCNA it was under 100 nM.
In the case of `COc1ncccc1-c1ncc2c(n1)n(Cc1ccc(-c3nc(C(F)(F)F)cn3C(C)C)cc1)c(=N)n2C` [Example T-037], the IC50 was 100 to 10000 nM on USP1-UAF1, 250 to 10000 nM in the experiment on MDA-MB-436, at least 10000 nM in the experiment with HCC1954 and 250 to 10000 nM in the experiment on monoubiquitinated PCNA.
`COc1ncnc(C(F)(F)F)c1-c1ncc2c(n1)n(Cc1ccc(-c3nc(C(F)(F)F)cn3C)cc1)c(=N)n2C` [Example T-038, 2-[4-methoxy-6-(trifluoromethyl)pyrimidin-5-yl]-7-methyl-9-[[4-[1-methyl-4-(trifluoromethyl)imidazol-2-yl]phenyl]methyl]purin-8-imine]: the IC50 is 30 to 100 nM against USP1-UAF1, 100 to 250 nM with MDA-MB-436, at least 10000 nM in the experiment on HCC1954 and under 100 nM in the experiment on monoubiquitinated PCNA.
The corresponding values for `Cn1cc(C(F)(F)F)nc1-c1ccc(Cn2c(=N)n(C)c3cnc(-c4cc(F)ccc4OC(F)F)nc32)cc1` [Example T-039, 2-[2-(difluoromethoxy)-5-fluoro-phenyl]-7-methyl-9-[[4-[1-methyl-4-(trifluoromethyl)imidazol-2-yl]phenyl]methyl]purin-8-imine] are 30 to 100 nM, 250 to 10000 nM, at least 10000 nM and 250 to 10000 nM.
Take `Cc1cc(-c2nc(C(F)(F)F)cn2C)ccc1Cn1c(=N)n(C)c2cnc(-c3ccccc3C(C)C)nc21` [Example T-040]: the IC50 was 30 to 100 nM on USP1-UAF1, under 100 nM in the experiment on MDA-MB-436, at least 10000 nM in the experiment with HCC1954 and under 100 nM with monoubiquitinated PCNA.
For the compound `COc1ncnc(C2CC2)c1-c1ncc2c(n1)n(Cc1cc(F)c(-c3nc(C(F)(F)F)cn3C)cc1F)c(=N)n2C` [Example T-044], the IC50 against USP1-UAF1 was 30 to 100 nM; with MDA-MB-436, 250 to 10000 nM; in the experiment on HCC1954 it was at least 10000 nM; in the experiment on monoubiquitinated PCNA, 100 to 250 nM.
For the compound `CC(C)c1ccccc1-c1ncc2c(n1)n(Cc1ccc(-c3nc(C(F)(F)F)cn3C)cc1Cl)c(=N)n2C` [Example T-047], the IC50 was 30 to 100 nM on USP1-UAF1, 250 to 10000 nM in the experiment on MDA-MB-436, at least 10000 nM with HCC1954 and 100 to 250 nM in the experiment with monoubiquitinated PCNA.
In the case of `Cn1cc(C(F)(F)F)nc1-c1ccc(Cn2c(=N)n(CC(F)F)c3cnc(-c4ccccc4C(F)(F)F)nc32)cc1` [Example T-049], the IC50 at USP1-UAF1 is 30 to 100 nM; in the experiment with MDA-MB-436, 100 to 250 nM; with HCC1954, at least 10000 nM; with monoubiquitinated PCNA it was 250 to 10000 nM.
In the case of `CC(C)n1cc(C(F)(F)F)nc1-c1ccc(Cn2c(=N)n(C)c3cnc(-c4cccnc4OC(F)F)nc32)cc1` [Example T-051, 2-[2-(difluoromethoxy)-3-pyridyl]-9-[[4-[1-isopropyl-4-(trifluoromethyl)imidazol-2-yl]phenyl]methyl]-7-methyl-purin-8-imine], the IC50 against USP1-UAF1 was 100 to 10000 nM; in the experiment with MDA-MB-436, 250 to 10000 nM; in the experiment with HCC1954, at least 10000 nM; in the experiment with monoubiquitinated PCNA, 250 to 10000 nM.
`COc1nsc(OC)c1-c1ncc2c(n1)n(Cc1ccc(-c3nc(C(F)(F)F)cn3C)cc1)c(=N)n2C` [Example T-052]: the 50% inhibitory concentration (IC50) against USP1-UAF1 was in the range of 30 to 100 nM; with MDA-MB-436, 100 to 250 nM; in the experiment on HCC1954, 250 to 10000 nM; with monoubiquitinated PCNA it was 100 to 250 nM.
